BindingDB's records for doi:10.1016/s0968-0896(99)00101-7 (Otsuka Pharmaceutical Co., Ltd, 1999)

Columns and labels:
Vasopressin V1a receptor = Vasopressin V1a receptor (Homo sapiens, UniProt P37288); experiment: Radioligand Binding Assay to HeLa Cells
Method: (§1) After reaching confluence in 12-well or 24-well dishes, the cells were washed twice with ice-cold PBS and incubated for 2 hr with [3H]-AVP at 4 deg C. For the competition experiment, test compounds were dissolved in dimethyl sulfoxide, diluted with DMEM medium and added into the wells at several appropriate concentrations. […] The protein content of the lysed cells was determined by the method of Bradford.

Vasopressin V2 receptor = Vasopressin V2 receptor (Homo sapiens, UniProt P30518); experiment: Radioligand Binding Assay to HeLa Cells; conditions: pH 7.4; 4 °C
Sequence of Vasopressin V2 receptor (P30518 whole entry): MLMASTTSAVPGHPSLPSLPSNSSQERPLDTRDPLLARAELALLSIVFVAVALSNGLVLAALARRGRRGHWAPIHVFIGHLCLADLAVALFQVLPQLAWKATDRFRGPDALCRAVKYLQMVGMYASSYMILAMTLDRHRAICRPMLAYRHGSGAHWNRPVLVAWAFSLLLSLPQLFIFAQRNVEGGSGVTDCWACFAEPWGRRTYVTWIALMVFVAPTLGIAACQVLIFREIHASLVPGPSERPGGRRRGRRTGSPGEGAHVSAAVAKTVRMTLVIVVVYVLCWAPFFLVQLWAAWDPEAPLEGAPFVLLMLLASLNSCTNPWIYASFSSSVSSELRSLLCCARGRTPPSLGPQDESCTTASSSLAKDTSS
Method: as §1

Sequence of Vasopressin V1a receptor (P37288 whole entry): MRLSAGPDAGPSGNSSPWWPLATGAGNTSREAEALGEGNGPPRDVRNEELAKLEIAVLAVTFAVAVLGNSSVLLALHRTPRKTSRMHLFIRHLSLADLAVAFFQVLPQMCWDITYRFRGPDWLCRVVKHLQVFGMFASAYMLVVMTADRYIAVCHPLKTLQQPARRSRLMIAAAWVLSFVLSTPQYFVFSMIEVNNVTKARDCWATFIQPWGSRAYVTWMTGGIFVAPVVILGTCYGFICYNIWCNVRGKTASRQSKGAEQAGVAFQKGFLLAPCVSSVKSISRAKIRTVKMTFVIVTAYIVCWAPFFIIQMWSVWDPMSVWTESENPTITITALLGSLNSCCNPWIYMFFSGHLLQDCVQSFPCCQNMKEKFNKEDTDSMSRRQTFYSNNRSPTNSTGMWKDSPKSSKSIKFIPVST

| SMILES | IC50 (Vasopressin V1a receptor; pH 7.4, 4 °C) | IC50 (Vasopressin V2 receptor) | IC50 (Vasopressin V1a receptor) |
| --- | --- | --- | --- |
| CNC1CCCN(C(=O)c2ccc(NC(=O)c3ccccc3C)cc2)c2ccc(Cl)cc21 (stereo not drawn) [benzazepine derivative, 13a] | 64 nM | 7 nM |  |
| Cc1ccccc1C(=O)Nc1ccc(C(=O)N2CCCC(N(C)C)c3cc(Cl)ccc32)cc1 (stereo not drawn) [benzazepine derivative, 14] | 190 nM | 25 nM |  |
| Cc1ccccc1C(=O)Nc1ccc(C(=O)N2CCCC(N(C)C)c3ccc(Cl)cc32)cc1 (stereo not drawn) [benzazepine derivative, 15] | 1200 nM | 63 nM |  |
| Cc1ccccc1C(=O)Nc1ccc(C(=O)N2CCCC(N(C)C)c3cccc(Cl)c32)cc1 (stereo not drawn) [benzazepine derivative, 16] | 540 nM | 140 nM |  |
| Cc1ccccc1C(=O)Nc1ccc(C(=O)N2CCCC(N(C)C)c3c(Cl)cccc32)cc1 (stereo not drawn) [benzazepine derivative, 17] | 1700 nM | 190 nM |  |
| C=CCNC1CCCN(C(=O)c2ccc(NC(=O)c3ccccc3C)cc2)c2ccc(Cl)cc21 (stereo not drawn) [benzazepine derivative, 18] | 45 nM | 18 nM |  |
| C=CCN(C)C1CCCN(C(=O)c2ccc(NC(=O)c3ccccc3C)cc2)c2ccc(Cl)cc21 (stereo not drawn) [benzazepine derivative, 19] | 350 nM | 97 nM |  |
| Cc1ccccc1C(=O)Nc1ccc(C(=O)N2CCCC(O)c3cc(Cl)ccc32)cc1 (stereo not drawn) [benzazepine derivative, 20] | 17 nM | 3 nM |  |
| COC1CCCN(C(=O)c2ccc(NC(=O)c3ccccc3C)cc2)c2ccc(Cl)cc21 (stereo not drawn) [benzazepine derivative, 21] | 34 nM | 5 nM |  |
| C=CCOC1CCCN(C(=O)c2ccc(NC(=O)c3ccccc3C)cc2)c2ccc(Cl)cc21 (stereo not drawn) [benzazepine derivative, 22] | 53 nM | 9 nM |  |
| Cc1ccccc1C(=O)Nc1ccc(C(=O)N2CCCC(O)c3cc(Cl)ccc32)c(Cl)c1 (stereo not drawn) [benzazepine derivative, 30] | 290 nM | 8 nM |  |
| Cc1ccccc1C(=O)Nc1ccc(C(=O)N2CCCC(O)c3cc(Cl)ccc32)cc1Cl (stereo not drawn) [benzazepine derivative, 31] | 31 nM | 28 nM |  |
| COc1cc(NC(=O)c2ccccc2C)ccc1C(=O)N1CCCC(O)c2cc(Cl)ccc21 (stereo not drawn) [benzazepine derivative, 33] |  | 13 nM | 39 nM |
| COc1cc(C(=O)N2CCCC(O)c3cc(Cl)ccc32)ccc1NC(=O)c1ccccc1C (stereo not drawn) [benzazepine derivative, 34] |  | 5 nM | 7 nM |
